According to patent publication US11077136B2, “Compositions for the skin” (BIOIBERICA, S.A.U., priority 2016, dated 2021):

Tested on: Human dermal fibroblasts (HDF)
Experiment: In vitro wound closure (healing activity) test, area covered with cells
Format: cell-based
Settings: 48 hours; O-3 0.156 mg/mL, HA 0.0017 mg/mL, DS 0.0004 mg/mL, N 0.0818 mg/mL, ZnO 0.0027 mg/mL; FIG. 4 and 5; p<0.05 where significant
From the text: Human dermal fibroblasts (HDF) were used, which were cultivated in dishes with 24 wells with a surface area of 1.99 cm^2, with a density of 7×10^4 cells/well. A mark was made in a straight line approximately 2 mm wide on the surface of the single layer of cells using a sterile plastic tip, creating an area free of cells. […]
The cells were then allowed to migrate to the center of the dish, to cover the area free of cells, in the presence of the compounds being studied, and the area covered with cells was quantified after 48 hours using the TIRF Automated Inverted Microscope—ScanR Olympus […] and a 4× objective lens (total amplification 40×). […]
To determine the healing activity of each treatment, the area covered by cells was quantified, in μm^2, before (T0 h) and after (48 h) the treatment, using image analysis using the software Image J. The results were compared with those obtained for the negative and positive controls.

[O]=[Zn] [ZnO, Zinc oxide]
increase in healing (area covered with cells) versus negative control: did not cause a significant increase in healing
